“And” between values parts separate entries of the source, which are not always exact repeats. Equal values may be shown once. The source made the active and inactive calls. No cut-off for these calls is given here.
Legend:
Mus musculus [1] = experiment: Effect on HBeAg expression in Balb/c mouse model infected with adeno-associated virus harbouring HBV 1.3 genome at 1 mg/kg, po qd for 7 weeks followed by drug removal measured after 8 weeks by chemiluminescence immunoassay; format: functional, organism-based
Hepatitis B virus [2] = experiment: Antiviral activity against HBV in Balb/c mouse model infected with adeno-associated virus harbouring HBV 1.3 genome assessed as reduction in plasma HBV DNA at 1 mg/kg, po qd for 7 weeks followed by drug removal measured after 8 weeks by real-time PCR analysis; format: functional, organism-based
Mus musculus [3] = experiment: Effect on intrahepatic HBcAg expression in Balb/c mouse model infected with adeno-associated virus harbouring HBV 1.3 genome at 1 mg/kg, po qd for 4 weeks by Western blot analysis; format: functional, organism-based
[4] = Cytotoxicity against human HepG2.2.15 cells harboring HBV genome incubated for 8 days by MTT assay; format: toxicity, cell-based, HepG2 2.2.15; details: time 8 day
Hepatitis B virus [5] = experiment: Antiviral activity against HBV in Balb/c mouse model infected with adeno-associated virus harbouring HBV 1.3 genome assessed as reduction in intrahepatic HBV DNA at 1 mg/kg, po qd for 4 weeks by Southern blot analysis; format: functional, organism-based
Mus musculus [6] = experiment: Effect on HBsAg expression in Balb/c mouse model infected with adeno-associated virus harbouring HBV 1.3 genome at 1 mg/kg, po qd for 7 weeks followed by drug removal measured after 8 weeks by chemiluminescence immunoassay; format: functional, organism-based
Hepatitis B virus [7] = experiment: Antiviral activity against HBV in mouse model infected with adeno-associated virus harbouring HBV genome assessed as log reduction in HBsAg at 20 mg/kg, po qd for 8 weeks; format: functional
Hepatitis B virus [8] = experiment: Antiviral activity against HBV in mouse model infected with adeno-associated virus harbouring HBV genome assessed as log reduction in HBV DNA at 20 mg/kg, po qd for 8 weeks; format: functional
Hepatitis B virus [9] = experiment: Antiviral activity against HBV in mouse model infected with adeno-associated virus harbouring HBV genome assessed as log reduction in HBeAg at 20 mg/kg, po qd for 8 weeks; format: functional
[10] = Half life in ICR mouse at 20 mg/kg, po measured for 24 hrs byb LC-MS/MS analysis; format: ADME, organism-based; details: in vivo
[11] = Tmax in ICR mouse at 20 mg/kg, po measured for 24 hrs byb LC-MS/MS analysis; format: ADME, organism-based; details: in vivo
Hepatitis B virus [12] = experiment: Antiviral activity against HBV in human HepG2.2.15 cells harboring HBV genome assessed as reduction in HBV ssDNA incubated for 8 days by Southern blot analysis; format: functional, organism-based; details: dose <= 800.0 nM, time 8.0 day
HepG2.2.15 [13] = experiment: Inhibition of HBeAg secretion in human HepG2.2.15 cells harboring HBV genome incubated for 8 days; format: functional, cell-based; details: Hepatitis B virus, time 8.0 day
[14] = Prodrug conversion in ICR mouse assessed as Cmax of 3-((3-chloro-5-(3-(4-cyanobenzyl)-4-oxo-3,4-dihydrophthalazin-1-yl)-6-fluoropyridin-2-yl)amino)propanoic acid metabolite at 20 mg/kg, po measured for 24 hrs by LC-MS/MS analysis; format: ADME, organism-based; details: in vivo
[15] = Cmax in ICR mouse at 20 mg/kg, po measured for 24 hrs byb LC-MS/MS analysis; format: ADME, organism-based; details: in vivo
[16] = AUClast in ICR mouse at 20 mg/kg, po measured for 24 hrs byb LC-MS/MS analysis; format: ADME, organism-based; details: in vivo
[17] = Prodrug conversion in ICR mouse assessed as Tmax of 3-((3-chloro-5-(3-(4-cyanobenzyl)-4-oxo-3,4-dihydrophthalazin-1-yl)-6-fluoropyridin-2-yl)amino)propanoic acid metabolite at 20 mg/kg, po measured for 24 hrs by LC-MS/MS analysis; format: ADME, organism-based; details: in vivo
HepG2.2.15 [18] = experiment: Inhibition of HBsAg secretion in human HepG2.2.15 cells harboring HBV genome incubated for 8 days; format: functional, cell-based; details: Hepatitis B virus, time 8.0 day
Hepatitis B virus [19] = experiment: Antiviral activity against HBV in human HepG2.2.15 cells harboring HBV genome assessed as formation of fast-migrating capsids lacking capsid-associated HBV DNA upto 80 nM by native agarose gel electrophoresis; format: functional, organism-based
[20] = Prodrug conversion in ICR mouse assessed as AUClast of 3-((3-chloro-5-(3-(4-cyanobenzyl)-4-oxo-3,4-dihydrophthalazin-1-yl)-6-fluoropyridin-2-yl)amino)propanoic acid metabolite at 20 mg/kg, po measured for 24 hrs by LC-MS/MS analysis; format: ADME, organism-based; details: in vivo
Hepatitis B virus [21] = experiment: Antiviral activity against HBV in human HepG2.2.15 cells harboring HBV genome assessed as reduction in HBV rcDNA incubated for 8 days by Southern blot analysis; format: functional, organism-based; details: dose <= 800.0 nM, time 8.0 day
[22] = Prodrug conversion in ICR mouse assessed as Cmax of 4-((4-(5-chloro-2-fluoro-6-((3-hydroxypropyl)amino)pyridin-3-yl)-1-oxophthalazin-2(1H)-yl)methyl)benzonitrile metabolite at 20 mg/kg, po measured for 24 hrs by LC-MS/MS analysis; format: ADME, organism-based; details: in vivo
[23] = Prodrug conversion in ICR mouse assessed as AUClast of 4-((4-(5-chloro-2-fluoro-6-((3-hydroxypropyl)amino)pyridin-3-yl)-1-oxophthalazin-2(1H)-yl)methyl)benzonitrile metabolite at 20 mg/kg, po measured for 24 hrs by LC-MS/MS analysis; format: ADME, organism-based; details: in vivo
Hepatitis B virus [24] = experiment: Antiviral activity against HBV in human HepG2.2.15 cells harboring HBV genome assessed as reduction in HBV DNA incubated for 8 days by real-time PCR analysis; format: functional, organism-based
[25] = Toxicity in Balb/c mouse model infected with adeno-associated virus harbouring HBV 1.3 genome at 100 mg/kg, po bid; format: organism-based; details: in vivo
Hepatitis B virus [26] = experiment: Antiviral activity against HBV in Balb/c mouse model infected with adeno-associated virus harbouring HBV 1.3 genome assessed as reduction in intrahepatic HBcAg level administered orally twice daily for 4 weeks by Western blot analysis; format: functional, organism-based; details: dose 50-75 mg/kg, route po
Hepatitis B virus [27] = experiment: Antiviral activity against HBV in Balb/c mouse model infected with adeno-associated virus harbouring HBV 1.3 genome assessed as reduction in plasma HBeAg level at 100 mg/kg, po bid for 7 weeks followed by drug removal measured after 8 weeks by chemiluminescence immunoassay; format: functional, organism-based
[28] = Prodrug conversion in ICR mouse assessed as Tmax of 4-((4-(5-chloro-2-fluoro-6-((3-hydroxypropyl)amino)pyridin-3-yl)-1-oxophthalazin-2(1H)-yl)methyl)benzonitrile metabolite at 20 mg/kg, po measured for 24 hrs by LC-MS/MS analysis; format: ADME, organism-based; details: in vivo
Hepatitis B virus [29] = experiment: Antiviral activity against HBV in Balb/c mouse model infected with adeno-associated virus harbouring HBV 1.3 genome assessed as reduction in cytoplasmic HBcAg level at 50 to 75 mg/kg, po bid for 4 weeks by IHC analysis; format: functional, organism-based; details: dose 50-75 mg/kg
Hepatitis B virus [30] = experiment: Antiviral activity against HBV in Balb/c mouse model infected with adeno-associated virus harbouring HBV 1.3 genome assessed as reduction in serum HBV DNA administered orally twice daily for 4 weeks by real-time PCR analysis; format: functional, organism-based; details: dose 25-75 mg/kg, route po
Hepatitis B virus [31] = experiment: Antiviral activity against HBV in Balb/c mouse model infected with adeno-associated virus harbouring HBV 1.3 genome assessed as reduction in plasma HBV DNA at 100 mg/kg, po bid for 7 weeks followed by drug removal measured after 8 weeks by real-time PCR analysis; format: functional, organism-based
[32] = Prodrug conversion in ICR mouse assessed as half life of 4-((4-(5-chloro-2-fluoro-6-((3-hydroxypropyl)amino)pyridin-3-yl)-1-oxophthalazin-2(1H)-yl)methyl)benzonitrile metabolite at 20 mg/kg, po measured for 24 hrs by LC-MS/MS analysis; format: ADME, organism-based; details: in vivo
Hepatitis B virus [33] = experiment: Antiviral activity against HBV in Balb/c mouse model infected with adeno-associated virus harbouring HBV 1.3 genome assessed as reduction in intrahepatic HBV DNA administered orally twice daily for 4 weeks by Southern blot analysis; format: functional, organism-based; details: dose 50-75 mg/kg, route po
[34] = Prodrug conversion in ICR mouse assessed as half life of 3-((3-chloro-5-(3-(4-cyanobenzyl)-4-oxo-3,4-dihydrophthalazin-1-yl)-6-fluoropyridin-2-yl)amino)propanoic acid metabolite at 20 mg/kg, po measured for 24 hrs by LC-MS/MS analysis; format: ADME, organism-based; details: in vivo
Hepatitis B virus [35] = experiment: Antiviral activity against HBV in Balb/c mouse model infected with adeno-associated virus harbouring HBV 1.3 genome assessed as reduction in plasma HBsAg level at 100 mg/kg, po bid for 7 weeks followed by drug removal measured after 8 weeks by chemiluminescence immunoassay; format: functional, organism-based

Row | Compound | CC50 at 192 h [4] | Activity (Hepatitis B virus [12]) | inhibition (HepG2.2.15 [13]) | Cmax [14] | Tmax [17] | inhibition (HepG2.2.15 [18]) | Activity (Hepatitis B virus [19]) | AUClast [20] | Activity (Hepatitis B virus [21]) | Cmax [22] | AUClast [23] | further results
1 | C=C1[C@H](CO)[C@@H](O)C[C@@H]1n1cnc2c(=O)[nH]c(N)nc21 [ENTECAVIR ANHYDROUS] | > 1 µM |  |  |  |  |  |  |  |  |  |  | Activity (Mus musculus [1]): inactive; Activity (Hepatitis B virus [2]): Active; Activity (Mus musculus [3]): inactive; Activity (Hepatitis B virus [5]): Active; Activity (Mus musculus [6]): inactive
2 | CCOC(=O)C1=C(CN2CCN3C(=O)N(CC(C)(C)C(=O)O)C[C@@H]3C2)N=C(c2nccs2)N[C@H]1c1cccc(F)c1C [LINVENCORVIR] |  |  |  |  |  |  |  |  |  |  |  | log(activity) (Hepatitis B virus [7]): 2.4; log(activity) (Hepatitis B virus [8]): 3; log(activity) (Hepatitis B virus [9]): 1.5
3 | N#Cc1ccc(Cn2nc(-c3cc(Cl)c(NCCCO)nc3F)c3ccccc3c2=O)cc1 | > 100 µM | Dose-Dependent Effect | inactive | 0.0622 µg/mL | 2.67 h | inactive | Active | 0.498 µg·h/mL | Dose-Dependent Effect |  |  | half-life [10]: 0.99 h; Tmax [11]: 2 h; Cmax [15]: 0.027 µg/mL; AUC(0-t) at 24 h [16]: 0.0614 µg·h/mL
4 | CC(C)OC(=O)[C@@H](C)N[P@](=O)(OCCCNc1nc(F)c(-c2nn(Cc3ccc(C#N)cc3)c(=O)c3ccccc23)cc1Cl)Oc1ccccc1 (single isomer, unassigned) |  |  |  | 0.321 µg/mL |  |  |  | 2.727 µg·h/mL |  | 0.0482 µg/mL | 0.186 µg·h/mL | 
5 | N#Cc1ccc(Cn2nc(-c3cc(Cl)c(NCCC(=O)O)nc3F)c3ccccc3c2=O)cc1 | > 100 µM | Dose-Dependent Effect | inactive |  |  | inactive | Active |  | Dose-Dependent Effect |  |  | EC50 (Hepatitis B virus [24]): 1.29 µM and 0.17 µM
6 | CC(C)[C@H](N)C(=O)OCCCNc1nc(F)c(-c2nn(Cc3ccc(C#N)cc3)c(=O)c3ccccc23)cc1Cl | 63.1 µM | Dose-Dependent Effect | inactive | 3.729 µg/mL | 1.67 h | inactive | Active | 13.56 µg·h/mL | Dose-Dependent Effect | 1.065 µg/mL | 2.296 µg·h/mL | Activity [25]: Non-Toxic; Activity (Hepatitis B virus [26]): Dose-Dependent Effect; Activity (Hepatitis B virus [27]): Active; Tmax [28]: 0.42 h; Activity (Hepatitis B virus [29]): Dose-Dependent Effect; Activity (Hepatitis B virus [30]): Dose-Dependent Effect; Activity (Hepatitis B virus [31]): Active; t1/2 [32]: 2.32 h; Activity (Hepatitis B virus [33]): Dose-Dependent Effect; t1/2 [34]: 2.85 h; Activity (Hepatitis B virus [35]): Active

Reference: ChEMBL document CHEMBL5620361, “A prodrug of the capsid assembly modulator improved druggability and lowing HBsAg and HBeAg for the treatment of chronic hepatitis B” (Eur J Med Chem, 2023)
